# Measurements published in patent US9243036B2, “Anti-microbial activity of synthetic peptides” (THE UNITED STATES OF AMERICA, as represented by the …, priority 2012, dated 2016).
# “Also recorded” adds a separate entry of the source. Residues, ends and D or L forms follow the SMILES beside them.
# How the values were obtained:
# Type in all cases: cell-based
# B. cereus [1] = assay: MIC by standard dilution assay (CLSI)
# Protocol: (§1) In vitro anti-bacterial activity of EC5. The test microorganisms mentioned earlier in the experimental procedures were used to evaluate the bactericidal activity of EC5 peptide. The minimum inhibitory concentrations (MICs) of the peptide were determined by standard dilution assay as recommended by Clinical and Laboratory Standard Institutes (CLSI) guidelines (Azad, M. A., et al., (2011) Antimicrob. Agents Chemother. 55, 2137-2145). Bacteria were grown to mid-logarithmic phase in cation-supplemented Mueller-Hinton broth (MHB) (Becton Dickinson, Sparks, Md.) on an orbital shaker (37° C.) and diluted to a 0.5 McFarland standard to a final volume of 1 ml. Decreasing concentrations of the peptide were incubated with the microorganisms. Results were recorded by visual inspection after 24 h of incubation at 37° C. Assay was repeated three separate times to ensure reproducibility. […] EC5 concentrations 0x, 0.5x, 1x, and 2×MIC were incubated with logarithmic phase of bacteria of approximately 10^5 CFU/ml in an orbital shaker for 48 h at 37° C. Samples were drawn and plated on NA plates. Polymyxin B was used as a positive control and peptide with no anti-bacterial activity from our previous studies was used as a negative control.
# Gram-positive strains = assay: MIC by standard dilution assay (CLSI)
# Protocol: as §1
# S. aureus [2] = assay: MIC by standard dilution assay (CLSI)
# Protocol: as §1
# S. epidermidis [3] = assay: MIC by standard dilution assay (CLSI)
# Protocol: as §1
# E. coli [4] = assay: Time-kill kinetics
# Protocol: as §1
# P. aeruginosa [5] = assay: Time-kill kinetics; settings: P. aeruginosa ATCC 12121; 27853
# Protocol: as §1
# B. cereus [6] = assay: Anti-bacterial activity in spiked platelets; settings: even at high concentrations
# Protocol: (§2) The anti-bacterial activity of the peptide in the presence of homologous plasma and platelets were assessed. Platelet Concentrates (PCs) in bags were obtained and stored at room temperature as described earlier (Mohan, K. V. et al., (2010) Transfusion 50, 166-173). Plasma was isolated from the PC bag by collecting 25 ml of PCs and subjecting the sample to a low speed centrifugation step to separate PLT-rich plasma from plasma. For assays log phase cultures of bacteria grown in Luria-Bertani (LB) broth were centrifuged at 3000×g and suspended in 1×PBS pH7.4. Bacterial titers were estimated by measuring the optical density (OD) and microscopy. Approximately 10^5 CFU/ml of each bacterial strain was spiked into 0.1 ml of plasma or platelets and incubated with peptide at concentrations ranging from 50 to 0 μg/ml. Incubation was carried out at room temperature for 2 h on a shaker. At the end of 2-h exposure period, a fixed volume of the suspension was plated on NA plates, and incubating at 37° C. for 18 to 24 h. Bactericidal activity was measured by log-reduction by viable bacteria.
# E. coli [7] = assay: Anti-bacterial activity in spiked platelets; settings: 2 h
# Protocol: as §2
# K pneumoniae = assay: Anti-bacterial activity in spiked platelets; settings: 2 h
# Protocol: as §2
# P. aeruginosa [8] = assay: Anti-bacterial activity in spiked platelets; settings: EC5 25 and 12.5 μg/ml; 2 h
# Protocol: as §2
# S. aureus [9] = assay: Anti-bacterial activity in spiked platelets; settings: even at high concentrations
# Protocol: as §2
# S. epidermidis [10] = assay: Anti-bacterial activity in spiked platelets; settings: even at high concentrations
# Protocol: as §2
# [11] = test system: chicken red blood cells (ch-RBCs)
# Protocol: The ability of EC5 to induce hemolysis of chicken red blood cells (ch-RBCs) was assessed as previously described (Pathak, S. and Chauhan, V. S. (2011) Antimicrob. Agents Chemother. 55, 2178-2188). Red blood cells were harvested and washed with phosphate-buffered saline (PBS). 1% (vol/vol) suspension was made with PBS. 100 μl and 50 μl of this RBC suspension were transferred to 96-well microtiter plates. Two-fold serial dilutions of the peptide samples were prepared and added to the RBCs. The reaction mixture was incubated at 37° C. for 24 h in microtiter plates. Results were visually determined.
# The hemolytic activity of EC5 against chRBCs was determined as a measure of peptide toxicity toward higher eukaryotic cells (Yount, N. Y., et al., (2011) PLoS. One. 6, e26727; Tachi, T., et al., Biochemistry 41, 10723-10731). MHC is the maximal peptide concentration that produces no hemolysis after 24 h of incubation at 37° C.
# E. coli [12] = assay: ATP inhibition (BACTITER-GLO); settings: EC5 at lowest concentration of 3.125 μg/ml
# Protocol: (§3) The effects of EC5 on ATP inhibition as a measure of metabolic activity of E. coli and P. aeruginosa cells was determined by using BACTITER-GLO™ assay kit (Promega) according to the manufacturer's protocol. The luminescent signal correlates with the number of viable microbial cells based on the amount of ATP present after the addition of different concentrations of the peptide. Polymyxin B was included as a positive control.
# (§4) ATP inhibition as a measurement of microbial viability was measured using BacTiter-Glo kit ([…]). Intracellular ATP levels of E. coli and P. aeruginosa were examined after the addition of different concentrations of EC5 (FIG. 9D). ATP inhibition began 5 min after the addition of EC5 at lowest concentration of 3.125 μg/ml which was slightly lower than the MIC of 8 μg/ml for E. coli and P. aeruginosa.
# P. aeruginosa [13] = assay: ATP inhibition (BACTITER-GLO); settings: EC5 at lowest concentration of 3.125 μg/ml
# Protocol: as §3, §4
smiles,measurement,setting,value
"CC[C@H](C)[C@H](NC(=O)[C@H](CCCCN)NC(=O)[C@H](CCCNC(=N)N)NC(=O)[C@H](Cc1ccccc1)NC(=O)[C@H](CC(C)C)NC(=O)[C@H](CC(C)C)NC(=O)[C@@H](N)CCCNC(=N)N)C(=O)N[C@@H](CCCNC(=N)N)C(=O)N[C@@H](CCCNC(=N)N)C(=O)N[C@@H](CC(C)C)C(=O)N[C@@H](CCCCN)C(=O)N[C@@H](CCCNC(=N)N)C(=O)O [EC5, RLLFRKIRRLKR] (H-RLLFRKIRRLKR-OH; N-terminus and C-terminus assumed)",activity against B. cereus,B. cereus [1],not active
same,activity against Gram-positive strains,Gram-positive strains,no activity
same,activity against S. aureus,S. aureus [2],not active
same,activity against S. epidermidis,S. epidermidis [3],not active
same,reduction of E. coli,"E. coli [4]; 4 μg/ml, around 45 min of exposure",2-3 log10 CFU/ml
same,regrowth,"E. coli [4]; E. coli ATCC 700928, 25922",no regrowth until 24 hrs
same,time to complete inhibition,"E. coli [4]; E. coli ATCC 700928, 25922",5 min
same,killing of E. coli,E. coli [4]; MBC concentration of 8 μg/ml,complete killing
same,regrowth,P. aeruginosa [5],no regrowth until 24 hrs
same,time to complete inhibition,P. aeruginosa [5],5 min
same,reduction of B. cereus in platelets,B. cereus [6],No significant reduction
same,reduction of E. coli in platelets,E. coli [7]; EC5 12.5 μg/ml,4.5 log10 CFU/ml
same,E. coli colonies in platelets,E. coli [7]; EC5 50 and 25 μg/ml,no detectable E. coli colonies; also recorded: complete inhibition
same,reduction of K pneumoniae in platelets,K pneumoniae; EC5 12.5 μg/ml,1 log10CFU/m
same,reduction of K pneumoniae in platelets,K pneumoniae; EC5 25 μg/ml,1.5 log10CFU/m
same,reduction of K pneumoniae in platelets,K pneumoniae; EC5 50 μg/ml,2.5 log10CFU/m
same,reduction of P. aeruginosa in platelets,P. aeruginosa [8],4 log10 CFU/ml
same,reduction of S. aureus in platelets,S. aureus [9],No significant reduction
same,reduction of S. epidermidis in platelets,S. epidermidis [10],No significant reduction
same,therapeutic index (MIC versus concentrations inducing hemolysis),[11],favorable
same,time at which ATP inhibition began,E. coli [12],5 min
same,time at which ATP inhibition began,P. aeruginosa [13],5 min
